≈ marks a conversion by molar mass, not a printed value.
What was measured:
[1] = test system: rice blast fungus (Pyricularia oryzae); format: in vivo; settings: 500 ppm a.i., 10 days after inoculation; for No. of leaves in each infection degree 0: index 0 = 0 lesions per leaf; for No. of leaves in each infection degree 1: index 1 = 1 lesion per leaf; for No. of leaves in each infection degree 2: index 2 = 2-5 lesions per leaf; for No. of leaves in each infection degree 3: index 3 = 6-10 lesions per leaf; for No. of leaves in each infection degree 4: index 4 = 11 or more lesions per leaf; for % of Infected leaves / Infection degree / No. of infected leaves: rice seedlings
Botrytis cinerea [2] = test: Activity persistence against gray mold of egg plant (spray 1 to 10 days before inoculation); format: in vivo; settings: 250 ppm a.i.
Botrytis cinerea [3] = test: Curative activity against gray mold of egg plant (detached leaf, spray after disease development); format: in vivo; settings: 125 ppm a.i.
Experimental: A second developed leaf of egg plant (variety: Senryo #12) was placed in a petri dish and the mycelia of Botrytis cinerea grown on a PDA culture medium was inoculated after punching with a cork borer on the center of the leaf. The incubation was carried out at 25°C under humid condition for 24 hours. […] After air drying, the incubation was carried out at 25°C under humid condition. The diameter of the infected area was measured every day for 5 days after the application. Eight tests were carried out in each run.

Sclerotinia sclerotiorum = test: Antifungal activity against Sclerotinia rot of kidney bean (sprayed cotyledons, mycelial inoculation); format: in vivo; settings: 500 ppm a.i.; for Average infected area: 28°C, RH 100%, 4 days; for Controlled value: (1-S/S₀)×100, 4 days
Experimental: A 20 ml sample solution containing a predetermined concentration of the active compound was sprayed on 10 cotyledons of a kidney bean (variety: Masterpiece), which were dried in a room. After drying, the mycelia of Sclerotinia sclerotiorum grown on a PDA culture medium was inoculated after punching with a cork borer. The incubation was carried out at a temperature of 28°C and an RH of 100% for 4 days. The infected area was measured. Ten tests were carried out in each run. […]

Botrytis cinerea [4] = test: Antifungal activity against Botrytis cinerea by agar dilution method; format: cell-based; settings: 120 h, concentration for 90% inhibition of mycelium growth, potato-agar medium, 25°C, 5 days, read-out: EC₉₀
Experimental: The culture medium thus obtained was allowed to stand in a room with constant temperature for predetermined days. Thereafter, the growth of mycelium of the microorganism was measured and the concentration for 90% inhibition of the growth (EC₉₀) was determined. Four tests were carried out in each run. The tests for microorganisms were carried out at a temperature of 25°C for 5 days.

[5] = 1 day between application and inoculation
[6] = 4 days between application and inoculation
[7] = 7 days between application and inoculation
[8] = 10 days between application and inoculation
[9] = 1 day between application and observation
[10] = 2 days between application and observation
[11] = 3 days between application and observation
[12] = 4 days between application and observation
[13] = 5 days between application and observation

Compound | No. of leaves in each infection degree 0 [1] | No. of leaves in each infection degree 1 [1] | No. of leaves in each infection degree 2 [1] | No. of leaves in each infection degree 3 [1] | No. of leaves in each infection degree 4 [1] | % of Infected leaves [1] [%] | Infection degree [1] | No. of infected leaves [1] | Infection degree (Botrytis cinerea [2]; [5]) | Infection degree (Botrytis cinerea [2]; [6]) | Infection degree (Botrytis cinerea [2]; [7]) | Infection degree (Botrytis cinerea [2]; [8]) | Diameter of lesion (Botrytis cinerea [3]; [9]) [mm] | Diameter of lesion (Botrytis cinerea [3]; [10]) [mm] | Diameter of lesion (Botrytis cinerea [3]; [11]) [mm] | Diameter of lesion (Botrytis cinerea [3]; [12]) [mm] | Diameter of lesion (Botrytis cinerea [3]; [13]) [mm] | Average infected area (Sclerotinia sclerotiorum) [%] | Controlled value (Sclerotinia sclerotiorum) [%] | EC90 (Botrytis cinerea [4]) [µg/mL]
CC(C)OC(=O)C(C(=O)OC(C)C)=C1SCCS1 [F, diisopropyl-1,3,-dithiolan-2-ylidene malonate] | 128 | 45 | 12 | 0 | 0 | 30.8 | 9.3 | 185 |  |  |  |  |  |  |  |  |  |  |  | 
CC12CC1(C)C(=O)N(c1cc(Cl)cc(Cl)c1)C2=O (centres unmarked) [D, N-(3′,5′-dichlorophenyl)-1,2-dimethylcyclopropane-1,2-dicarboximide] |  |  |  |  |  |  |  |  | 12.0 | 15.5 | 20.5 | 25.0 |  |  |  |  |  |  |  | 
CCCC(c1ccc(Cl)cc1Cl)C(C#N)n1ccnc1 (centres unmarked) [A, 3-(2,4-dichlorophenyl)-2-(1-imidazolyl)hexanenitrile] |  |  |  |  |  |  |  |  | 25.0 | 37.5 | 45.0 | 62.5 | 10 | 18 | 23 | 26 | 30 | 40 | 60 | 10.9 (≈ 35.4 µM)
CCC(c1ccc(F)cc1Cl)C(C#N)c1cccnc1 (centres unmarked) [Compound 12, 3-(2-chloro-4-fluorophenyl)-2-(3-pyridyl)pentanenitrile] |  |  |  |  |  |  |  |  | 10.0 | 11.0 | 12.0 | 15.0 | 10 | 15 | 17 | 19 | 19 | 5 | 95 | 0.9 (≈ 3.12 µM)
CCC(c1ccc(Cl)cc1Cl)C(C#N)c1cccnc1 (centres unmarked) [Compound 1, 3-(2,4-dichlorophenyl)-2-(3-pyridyl)pentanenitrile] | 145 | 48 | 13 | 0 | 0 | 29.6 | 9.0 | 206 | 10.0 | 12.0 | 17.5 | 17.5 | 10 | 15 | 17 | 19 | 19 | 5 | 95 | 1.4 (≈ 4.59 µM)
O=C1OCc2c(Cl)c(Cl)c(Cl)c(Cl)c21 [G, 4,5,6,7-tetrachlorophthalide] | 151 | 28 | 1 | 0 | 0 | 16.1 | 4.2 | 180 |  |  |  |  |  |  |  |  |  |  |  | 
COC(=O)NC(=S)Nc1ccccc1NC(=S)NC(=O)OC [E, dimethyl-4,4′-o-phenylene-bis(3-thioalfanate)] |  |  |  |  |  |  |  |  |  |  |  |  | 10 | 18 | 21 | 22 | 26 | 20 | 80 | 

Source: patent publication EP0311051A2, “Pyridylacetonitrile derivatives” (priority 1987, dated 1989)
